From patent US9198907B2, “Combinations of a HCV inhibitor such as bicyclic pyrrole derivatives and a therapeutic agent” (PTC Therapeutics, Inc., priority 2009, dated 2015)

Tested on: HCV replicon RNA in replicon cells
Experiment: Replicon RNA response to antiviral agent(s), replicon RNA level by real time PCR (Taqman assay)
Format: cell-based
Method: Replicon cells were seeded at ˜5000 cells/well in 96-well collagen I-coated Biocoat plates (Becton Dickinson). At 24 hrs post-seeding, a series of replicon cells were treated with a HCV protease inhibitor and a HCV inhibitor. The final concentration of DMSO was 0.5%, fetal bovine serum was 10%, and G418 (an aminoglycoside used as a selective agent) was 500 μg/mL.
To each concentration of Compound 10p, HCV inhibitor Compound 22 was titrated. After 3 days, the cells were washed with PBS and lysed in 1× Cell Lysis Buffer (Ambion cat #8721).
The replicon RNA level was measured using real time PCR (Taqman assay). The ampicon was located in NS5b. The PCR primers used were: 5B.2F, ATGGACAGGCGCCCTGA (SEQ ID NO: 1); 5B.2R, […] (SEQ ID NO: 2); the probe sequence was FAM-labeled CACGCCATGCGCTGCGG (SEQ ID NO: 3). GAPDH RNA was used as endogenous control and was amplified in the same reaction as NS5b (multiplex PCR) using primers and VIC-labeled probe recommended by the manufacturer (PE Applied Biosystem). The real-time RT-PCR reactions were run on ABI PRISM 7900HT Sequence Detection System using the following program: 48° C. for 30 min, 95° C. for 10 min, 40 cycles of 95° C. for 15 sec, 60° C. for 1 min. The ΔCT values (CT5B-CTGAPDH) were plotted against test compound concentration and fitted to the sigmoid dose response model using Graphpad PRISM software (Graphpad Software Inc.). The half maximal inhibitory concentration (IC50) is the concentration necessary to achieve ΔCT=1 over the projected baseline. The 90% maximal inhibitory concentration (IC90) is the concentration necessary to achieve ΔCT=3.2 over the baseline. Alternatively, to quantitate the absolute amount of replicon RNA, a standard curve was established by including serially diluted T7 transcripts of replicon RNA in the Taqman assay. All Taqman reagents were from PE Applied Biosystem.

| Compound | relative inhibition (logarithmic scale) of replicon RNA (Cpd 10p 0.15 μM, Compound 22 0 μM, replicon cells treated 3 days) | relative inhibition (logarithmic scale) of replicon RNA (Cpd 10p 1.2 μM, Compound 22 0 μM, replicon cells treated 3 days) | relative inhibition (logarithmic scale) of replicon RNA (combination: Compound 22 0.045 μM + Cpd 10p 0.15 μM, 3 days) | relative inhibition (logarithmic scale) of replicon RNA (combination: Compound 22 0.045 μM + Cpd 10p 1.2 μM, 3 days) | relative inhibition (logarithmic scale) of replicon RNA (combination: Compound 22 0.405 μM + Cpd 10p 0.15 μM, 3 days) | relative inhibition (logarithmic scale) of replicon RNA (combination: Compound 22 0.405 μM + Cpd 10p 1.2 μM, 3 days) |
| --- | --- | --- | --- | --- | --- | --- |
| CC(C)(C)NC(=O)N[C@H](C(=O)N1C[C@H]2[C@@H]([C@H]1C(=O)NC(CC1CCC1)C(=O)C(N)=O)C2(C)C)C(C)(C)C (stereo partly drawn) [Cpd 10p, (1R,2S,5S)-N-(4-amino-1-cyclobutyl-3,4-dioxobutan-2-yl)-3-((S)-2-(3-tert-butylureido)-3,3-dimethylbutanoyl)-6,6-dimethyl-3-azabicyclo[3.1.0]hexane-2-carboxamide, reference compound] | −0.74 | −1.72 |  |  |  |  |
| COc1cnc2c(c1)c(C#N)c(-c1ccc(S(=O)(=O)N[C@@H](C)C(F)(F)F)cn1)n2C1CCC1 [Cpd 22, 6-(3-cyano-1-cyclobutyl-5-methoxy-1H-pyrrolo[2,3-b]pyridin-2-yl)-N-[(2S)-1,1,1-trifluoropropan-2-yl]pyridine-3-sulfonamide] |  |  | −1.09 | −1.77 | −1.45 | −1.91 |
